Values of other authors as cited in patent US11589577B2, “Nanotechnology system for agricultural applications” (priority 2012, dated 2023).

Conditions: binds soil ions; stated as known issue

Question: Which “soil mobility (general statement)” value does the source give for abamectin here?
Answer: poor soil mobility
